US20240124408A1 (Sanofi, priority 2020, published 2024)
Structures can show the parent of a compound that is named as a salt. Where two headings read alike, the source gives them in different places.

Assays:
pig TRPM8 [1] = target: T1, pig TRPM8 (Sus scrofa, UniProt F1SM15); test: In vitro pig TRPM8 fluorescence calcium flux assay (recombinant CHO cells, Fluo4-AM, FDSS6000); assay type: cell-based; conditions: recombinant CHO cells expressing pig TRPM8; menthol-related EC50, normalized to 100 μM menthol
T1 construct: expressed in transfected cells; host or cells: CHO (pcDNA5/FRT/TO vector; hygromycin B and blasticidin selection)
T1 sequence (F1SM15 1-1104): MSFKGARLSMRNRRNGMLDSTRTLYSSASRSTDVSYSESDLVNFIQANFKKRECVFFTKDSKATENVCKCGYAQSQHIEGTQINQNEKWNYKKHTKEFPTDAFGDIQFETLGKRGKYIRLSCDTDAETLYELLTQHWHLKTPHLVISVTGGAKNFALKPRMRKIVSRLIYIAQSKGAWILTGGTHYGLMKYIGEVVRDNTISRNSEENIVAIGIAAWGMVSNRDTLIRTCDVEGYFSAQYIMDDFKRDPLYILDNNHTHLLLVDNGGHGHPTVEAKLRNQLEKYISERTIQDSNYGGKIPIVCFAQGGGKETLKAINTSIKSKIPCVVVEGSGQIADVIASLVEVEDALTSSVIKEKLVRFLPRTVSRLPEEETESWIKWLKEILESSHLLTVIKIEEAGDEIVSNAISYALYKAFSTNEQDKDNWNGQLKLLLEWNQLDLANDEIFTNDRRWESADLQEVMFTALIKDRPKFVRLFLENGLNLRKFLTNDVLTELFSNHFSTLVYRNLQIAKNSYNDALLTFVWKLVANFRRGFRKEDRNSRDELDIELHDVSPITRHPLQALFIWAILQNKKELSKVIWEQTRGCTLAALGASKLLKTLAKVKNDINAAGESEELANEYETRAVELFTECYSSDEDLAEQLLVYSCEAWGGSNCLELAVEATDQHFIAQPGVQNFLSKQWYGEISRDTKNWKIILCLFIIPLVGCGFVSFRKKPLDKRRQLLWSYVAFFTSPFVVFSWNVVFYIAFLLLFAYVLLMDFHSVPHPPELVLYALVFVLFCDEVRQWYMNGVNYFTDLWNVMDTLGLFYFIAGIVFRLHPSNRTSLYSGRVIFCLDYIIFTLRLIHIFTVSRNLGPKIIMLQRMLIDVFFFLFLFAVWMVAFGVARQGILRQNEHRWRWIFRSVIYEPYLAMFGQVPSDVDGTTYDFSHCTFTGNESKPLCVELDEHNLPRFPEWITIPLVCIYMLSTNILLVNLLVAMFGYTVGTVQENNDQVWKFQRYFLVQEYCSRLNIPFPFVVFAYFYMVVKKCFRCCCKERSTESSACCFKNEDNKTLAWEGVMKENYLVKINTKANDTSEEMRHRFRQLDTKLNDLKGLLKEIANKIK
Procedure, shortened: (§1)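 Agonist EC50 values come from sixteen-point dose responses normalized to the 100 μM menthol maximum, fitted sigmoidally. Calcium rise was followed for 3 min post-addition in recombinant CHO lines (human or pig TRPM8). Cells were dye-loaded with 2 μM Fluo4-AM, 1 h at room temperature, probenecid-containing HBSS.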

pig TRPM8 [2] = target: T1, pig TRPM8; test: In vitro pig TRPM8 automated patch-clamp assay (SyncroPatch 384PE, CHO cells); assay type: cell-based; conditions: CHO cells expressing pig TRPM8, 28° C.
Procedure, shortened: (§2)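 Whole-cell automated patch clamp on engineered CHO lines at 28 °C, held at −60 mV, with −80 to +80 mV ramps every 5 s; one compound concentration per well. Peak current minus pre-addition baseline was normalised to no-compound control and Emax, and EC50 was fitted; 200 μM menthol wells served as control.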

human TRPM8 [3] = target: T2, human TRPM8 (Homo sapiens, UniProt Q7Z2W7); test: In vitro human TRPM8 automated patch-clamp assay (SyncroPatch 384PE, CHO cells); assay type: cell-based; conditions: CHO cells expressing human TRPM8, 28° C.
T2 construct: expressed in transfected cells; host or cells: CHO (p658 mammalian expression vector)
T2 sequence (Q7Z2W7 whole entry): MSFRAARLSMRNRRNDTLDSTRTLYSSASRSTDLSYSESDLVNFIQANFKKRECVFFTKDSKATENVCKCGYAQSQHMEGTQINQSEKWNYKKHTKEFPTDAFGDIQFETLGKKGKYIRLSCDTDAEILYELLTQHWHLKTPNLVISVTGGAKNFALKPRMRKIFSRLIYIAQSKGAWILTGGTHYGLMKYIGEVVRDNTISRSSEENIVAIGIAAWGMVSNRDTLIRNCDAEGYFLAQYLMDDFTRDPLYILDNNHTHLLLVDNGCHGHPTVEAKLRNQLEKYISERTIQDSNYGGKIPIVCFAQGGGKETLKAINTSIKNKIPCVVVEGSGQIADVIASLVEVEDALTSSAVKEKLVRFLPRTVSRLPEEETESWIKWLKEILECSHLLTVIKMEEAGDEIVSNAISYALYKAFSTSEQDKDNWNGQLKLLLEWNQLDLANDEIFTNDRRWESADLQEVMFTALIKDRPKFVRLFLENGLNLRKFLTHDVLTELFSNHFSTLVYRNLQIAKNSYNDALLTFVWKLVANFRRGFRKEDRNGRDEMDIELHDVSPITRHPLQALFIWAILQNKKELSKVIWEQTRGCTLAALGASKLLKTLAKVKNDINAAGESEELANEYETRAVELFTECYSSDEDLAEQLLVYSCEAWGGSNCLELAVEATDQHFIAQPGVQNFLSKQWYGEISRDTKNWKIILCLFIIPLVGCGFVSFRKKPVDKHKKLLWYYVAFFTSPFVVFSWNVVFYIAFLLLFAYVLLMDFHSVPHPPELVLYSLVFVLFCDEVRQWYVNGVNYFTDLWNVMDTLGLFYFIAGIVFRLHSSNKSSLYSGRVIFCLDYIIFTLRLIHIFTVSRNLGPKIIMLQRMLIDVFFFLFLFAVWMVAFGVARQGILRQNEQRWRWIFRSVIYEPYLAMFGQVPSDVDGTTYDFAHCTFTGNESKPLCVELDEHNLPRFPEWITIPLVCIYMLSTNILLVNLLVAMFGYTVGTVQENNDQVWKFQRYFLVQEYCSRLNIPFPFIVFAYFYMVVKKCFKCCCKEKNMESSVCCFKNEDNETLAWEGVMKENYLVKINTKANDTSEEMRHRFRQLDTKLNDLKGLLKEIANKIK
Procedure, shortened: as §2

human TRPM8 [4] = target: T2, human TRPM8; test: In vitro human TRPM8 fluorescence calcium flux assay (recombinant CHO cells, Fluo4-AM, FDSS6000); assay type: cell-based; conditions: recombinant CHO cells expressing human TRPM8; menthol-related EC50, normalized to 100 μM menthol
Procedure, shortened: as §1

[5] = tested on: Male castrated German Landrace pigs; test: In vivo assay: enhancement of swallowing in anesthetized pigs (manometry with pressure probe in the mouth); conditions: Sus scrofa, anesthetized pig, dose per pig 10 mg, injected in 1 ml vehicle into the oral cavity
Experimental: For testing the efficacy of TRPM8 agonists for enhancing swallowing, experiment using the pig model can be conducted according to assay described below. The efficacy can be compared to a vehicle control.
Male castrated German Landrace pigs (weight range of 20 to 35 kg) were used. Anesthesia was induced by injecting 20 ml of a urethane solution (20 g/100 mL dissolved in saline) into an ear vein corresponding to a dose of around […]. Anesthesia was maintained by continuous infusion of 15-20 mL per hour of the urethane solution, which was infused into an epigastric vein, and additionally by infusion of Zoletil and Rompun (500 mg Zoletil is disssovled in 10 ml of Rompun 2%, then diluted 1:10 with saline and 3-5 mL per hour of this diluted solution. Bupivacain 0.5% JENAPHARM@ was injected for additional infiltration anesthesia. Anesthesia was monitored via pulsoximetry (ear) and regular reflex testing for pain. Body temperature was monitored and maintained by an infrared lamp.
Preparation of pigs: Swallowing responses were assessed by manometry with a pressure probe placed into the mouth of the pig. The pressure probe consisted of a plastic tube (diameter 3.3 mm) to which a small balloon was attached. The tube was advanced about 12-14 cm into the mouth related to the snout. The balloon was then inflated with air to yield a pressure of 20-30mbar (vehicle). Ideally a swallowing response with 1 ml of fluid raised this pressure by 20-50mbar which was then referred to as the swallowing pressure (the increment of this pre-set pressure in the inflated balloon after swallowing) to be further enhanced by an effective test drug.
The free end of the tube was connected to a differential pressure transducer MPX Type 399/2 (Hugo Sachs Elektronik-Harvard Apparatus) and a Hugo Sachs Plugsys-amplifier system. The biological signals were recorded by a Hugo Sachs Plugsys-amplifier system and continuously stored on a computer hard disk by an on line data acquisition and analysis system (Hem 4.2 Notocord Systems, Croissy-sur-Seine, France).
A second tube referred to as injection tube was placed dorsally to the manometer tube to enable the administration of the vehicle that induced the baseline swallowing activity, or of this same vehicle containing the test compound.
Induction and assessment of swallowing activity: 0.5h after anesthesia induction 1 ml of a fluid or the vehicle for the test drug was injected into the injection tube placed into the oral cavity. The number of swallows was counted and the highest-pressure increment was registered. Challenges with vehicle were repeated at intervals of 30 min until two consecutive vehicle challenges show an about equal swallowing response. The next challenge was the vehicle loaded with the test drug (otherwise same procedure). The efficacy of a compound to enhance swallowing as shown in Table 7 was expressed as the % increase in pressure and frequency of swallowing after administration of the compound compared to the pressure and frequency recorded for its vehicle administered just before.

[6] = frequency of swallowing compared with vehicle administered just before, read-out: % increase frequence vs vehicle
[7] = swallowing pressure compared with vehicle administered just before, read-out: % increase pressure vs vehicle

CC(C)[C@@H]1CC[C@@H](C)C[C@@]1(O)C(=O)NC[C@@H](N)c1ccccc1 [Example 50, (1S,2S,5R)—N-((2S)-amino-2-phenylethyl)-1-hydroxy-2-isopropyl-5-methylcyclohexane-1-carboxamide]
EC50 (pig TRPM8 [1]): 0.4 nM | EC50 (pig TRPM8 [2]): 71 nM | EC50 (human TRPM8 [3]): 140 nM | EC50 (human TRPM8 [4]): 0.4 nM | change in vivo at 10 mg [5, 6]: 100% | change in vivo at 10 mg [5, 7]: 63%

CC(C)[C@@H]1CC[C@@H](C)C[C@@]1(O)C(=O)NCCc1ccccc1C(=O)OCCN [Example 13, 2-aminoethyl 2-(2-((1S,2S,5R)-1-hydroxy-2-isopropyl-5-methylcyclohexane-1-carboxamido)ethyl) benzoate hydrochloride]
EC50 (pig TRPM8 [1]): 2 nM | EC50 (pig TRPM8 [2]): 782 nM | EC50 (human TRPM8 [3]): 150 nM | EC50 (human TRPM8 [4]): 1 nM | change in vivo at 10 mg [5, 6]: 100% | change in vivo at 10 mg [5, 7]: 53%

CC(C)[C@@H]1CC[C@@H](C)C[C@@]1(O)C(=O)NCCc1ccccc1CO [Example 14, (1S,2S,5R)-1-hydroxy-N-(2-(hydroxymethyl)phenethyl)-2-isopropyl-5-methylcyclohexane-1-carboxamide]
EC50 (pig TRPM8 [1]): 6.7 nM | EC50 (pig TRPM8 [2]): 3300 nM | EC50 (human TRPM8 [3]): 2720 nM | EC50 (human TRPM8 [4]): 10.3 nM | change in vivo at 10 mg [5, 6]: 62% | change in vivo at 10 mg [5, 7]: 73%

CC(C)[C@@H]1CC[C@@H](C)C[C@@]1(O)C(=O)NCCc1cccc(C(N)=O)c1 [Example 49, 3-(2-((1S,2S,5R)-1-hydroxy-2-isopropyl-5-methylcyclohexane-1-carboxamido)ethyl) benzamide]
EC50 (pig TRPM8 [1]): 24.2 nM | EC50 (pig TRPM8 [2]): 1400 nM | EC50 (human TRPM8 [3]): 1940 nM | EC50 (human TRPM8 [4]): 67 nM | change in vivo at 10 mg [5, 6]: 300% | change in vivo at 10 mg [5, 7]: 133%

CC(C)[C@@H]1CC[C@@H](C)C[C@@]1(O)C(=O)NCCc1ccccc1 [Example 51, (1S,2S,5R)-1-hydroxy-2-isopropyl-5-methyl-N-phenethylcyclohexane-1-carboxamide]
EC50 (pig TRPM8 [1]): 4.5 nM | EC50 (pig TRPM8 [2]): 823 nM | EC50 (human TRPM8 [3]): 3030 nM | EC50 (human TRPM8 [4]): 7.8 nM | change in vivo at 10 mg [5, 6]: 250% | change in vivo at 10 mg [5, 7]: 186%

CC(C)[C@@H]1CC[C@@H](C)C[C@@]1(O)C(=O)NC[C@@H](NC(=O)[C@H](C)N)c1ccccc1 [Example 63, (1S,2S,5R)—N—((S)-2-((S)-2-aminopropanamido)-2-phenylethyl)-1-hydroxy-2-isopropyl-5-methylcyclohexane-1-carboxamide]
EC50 (pig TRPM8 [1]): 5.7 nM | EC50 (pig TRPM8 [2]): 57 nM | EC50 (human TRPM8 [3]): 53 nM | EC50 (human TRPM8 [4]): 2.6 nM | change in vivo at 10 mg [5, 6]: 191% | change in vivo at 10 mg [5, 7]: 186%

CC(C)[C@@H]1CC[C@@H](C)C[C@@]1(O)C(=O)NCCc1ccccc1C(=O)OCCO [Example 22, 2-hydroxyethyl 2-(2-((1S,2S,5R)-1-hydroxy-2-isopropyl-5-methylcyclohexane-1-carboxamido)ethyl) benzoate]
EC50 (pig TRPM8 [1]): 34.5 nM | EC50 (pig TRPM8 [2]): 3840 nM | EC50 (human TRPM8 [3]): 3600 nM | EC50 (human TRPM8 [4]): 25.2 nM | change in vivo at 10 mg [5, 6]: 500% | change in vivo at 10 mg [5, 7]: 182%

CC(C)[C@@H]1CC[C@@H](C)C[C@@]1(O)C(=O)NCCc1cccc(C(=O)OCCO)c1 [Example 21, 2-hydroxyethyl 3-(2-((1S,2S,5R)-1-hydroxy-2-isopropyl-5-methylcyclohexane-1-carboxamido)ethyl) benzoate]
EC50 (pig TRPM8 [1]): 56.3 nM | EC50 (pig TRPM8 [2]): 5290 nM | EC50 (human TRPM8 [3]): 5500 nM | EC50 (human TRPM8 [4]): 65.1 nM | change in vivo at 10 mg [5, 6]: 171% | change in vivo at 10 mg [5, 7]: 181%

COC(=O)c1ccc(CCNC(=O)[C@]2(O)C[C@H](C)CC[C@H]2C(C)C)cc1 [Example 108, methyl 4-(2-((1S,2S,5R)-1-hydroxy-2-isopropyl-5-methylcyclohexane-1-carboxamido)ethyl)benzoate]
EC50 (pig TRPM8 [1]): 73 nM | EC50 (pig TRPM8 [2]): > 10000 nM | EC50 (human TRPM8 [4]): 211 nM | change in vivo at 10 mg [5, 6]: 114% | change in vivo at 10 mg [5, 7]: 169%

COC(=O)c1cccc(CCNC(=O)[C@]2(O)C[C@H](C)CC[C@H]2C(C)C)c1 [Example 107, methyl 3-(2-((1S,2S,5R)-1-hydroxy-2-isopropyl-5-methylcyclohexane-1-carboxamido)ethyl)benzoate]
EC50 (pig TRPM8 [1]): 21.7 nM | EC50 (pig TRPM8 [2]): 2440 nM | EC50 (human TRPM8 [3]): 3800 nM | EC50 (human TRPM8 [4]): 42.8 nM
